Columns and labels:
[1] = tested on: Sprague Dawley male rats; assay: Tolerability of high IV doses on q7d schedule in Sprague Dawley rats; type: in vivo; conditions: 100 mg/kg or 200 mg/kg IV on days 1, 8, 15, 22 and 29
Method: Sprague Dawley male rats (N=3) nine to ten weeks old with an average weight of 300 g were ad libitum fed standard rodent diet (PharmaServ lab diet 5001). […] The rats were weighed periodically and bled on day 10, day 17, day 24. For in-life blood collections, the rats were anesthetized with an inhalation mixture of 4% Isoflurane and 1.5% oxygen, then blood was collected via retro-orbital plexus puncture at a volume of at least 1 mL. […] Within the limits of comparison to normal ranges and pre-dose data, clinical findings for albumin, albumin/globulin ratio, alkaline, phosphatase, ALT (SGPT), AST (SGOT), bicarbonate, direct bilirubin, indirect bilirubin, total bilirubin, BUN, BUN/creatinine ratio, calcium, chloride, cholesterol, CK, creatinine, globulin, glucose, phosphorus, potassium, sodium, sodium/potassium ratio, total protein were unremarkable.

[2] = tested on: DIO C57Bl6 mice; assay: Efficacy of various compounds in DIO mouse model (body weight versus time); type: in vivo; conditions: for BW change vs. vehicle: day 26
Method: On study day 1 animals were randomized into groups so that the average weight of the mice in each group was 47 g. The mice were treated with either phosphate buffered saline (vehicle), or compounds as listed in Table 19 dissolved in vehicle (dorsal, subcutaneous administration).

[3] = tested on: DIO Levin rats; assay: In vivo testing DIO Levin rats: weight changes, food consumption, insulin, leptin levels; conditions: for Final BW: after 68 days, 60% fat diet
Method: CKD-732 as referred to herein is the hemitartrate salt of the following structure:
Test articles were administered subcutaneously on an every 4 day (q4d) schedule in a diet-induced obesity (DIO) Levin-DS rat model. […] A dietary intervention (Standard Chow, Labdiet 5001; 3.4 kcal/g) was included to compare to the drug interventions. Upon arrival at three weeks of age, the male rats received ad libitum pellets of Harlan Diet TD.06414, 60% of calories from fat, 21% of calories from carbohydrate; 5.1 kcal/g. Prior to dosing the rats were randomized into groups of three animals with an average body weight of 595 gm. […] Compound 1 in the form of the hemitartrate and CKD-732 in the form of the hemitartrate were dissolved in ethanol prior to dilution with vehicle. All doses were administered at a volume of 5.0 ml/kg. […] On day 1, first dose, the rats were 14 weeks of age. Also on day 1, Group 2 was switched from the high fat diet to a standard chow diet; the remaining groups were maintained on a high fat diet for the duration of the study.
Animals were weighed every other day. Food consumption was measured weekly. On an approximately weekly basis throughout the study, blood samples were taken for assessment of serum chemistries including glucose and insulin. On Day 48 all rats underwent a 4 hour fasted Oral Glucose Tolerance Test (OGTT). Animals were dosed orally (per os, PO) at 8 mL/kg 25% glucose (2 g/kg). On day 68, gross pathology was performed to determine body composition.

[4] = 0.6 mg/kd (so in the source) q4d sc

poly[HPMA-co-MA-GFLG-N-(trans-4-aminocyclohexyl)carbamoylfumagillol] [Compound 16]
evidence of neurotoxicity (ataxis, disorientation, tremor or convulsion) [1]: did not exhibit any evidence of neurotoxicity | Group Avg. BW, Study Day 1 ([2]; 2 mg/kg q4d sc): 47.0 g | Group Avg. BW, Study Day 7 ([2]; 2 mg/kg q4d sc): 43.4 g | Group Avg. BW, Study Day 15 ([2]; 2 mg/kg q4d sc): 43.2 g | Group Avg. BW, Study Day 21 ([2]; 2 mg/kg q4d sc): 42.0 g | Group Avg. BW, Study Day 26 ([2]; 2 mg/kg q4d sc): 41.7 g | BW change vs. vehicle ([2]; 2 mg/kg q4d sc): −9.6% | Group Avg. BW, Study Day 1 ([2]; 12 mg/kg q8d sc): 47.0 g | Group Avg. BW, Study Day 7 ([2]; 12 mg/kg q8d sc): 41.3 g | Group Avg. BW, Study Day 15 ([2]; 12 mg/kg q8d sc): 38.3 g | Group Avg. BW, Study Day 21 ([2]; 12 mg/kg q8d sc): 36.2 g | Group Avg. BW, Study Day 26 ([2]; 12 mg/kg q8d sc): 38.0 g | BW change vs. vehicle ([2]; 12 mg/kg q8d sc): −17.5% | Avg. Insulin Day 7 ([3]; 0.3 mg/kg q4d sc): 2.27 ng/mL | Avg. Insulin Day 15 ([3]; 0.3 mg/kg q4d sc): 1.65 ng/mL | Avg. Insulin Day 23 ([3]; 0.3 mg/kg q4d sc): 1.66 ng/mL | Avg. Insulin Day 48 ([3]; 0.3 mg/kg q4d sc): 1.70 ng/mL | Avg. Insulin Pre-dosing ([3]; 0.3 mg/kg q4d sc): 1.76 ng/mL | Group Average Food Consumption Day 1-8 ([3]; 0.3 mg/kg q4d sc): 125.2 g | Group Average Food Consumption Day 9-15 ([3]; 0.3 mg/kg q4d sc): 125.9 g | Group Average Food Consumption Day 16-23 ([3]; 0.3 mg/kg q4d sc): 128.2 g | Group Average Food Consumption Day 24-30 ([3]; 0.3 mg/kg q4d sc): 129.3 g | Group Average Food Consumption Day 31-36 ([3]; 0.3 mg/kg q4d sc): 122.4 g | Group Average Food Consumption Day 37-43 ([3]; 0.3 mg/kg q4d sc): 131.9 g | Group Average Food Consumption Day 44-50 ([3]; 0.3 mg/kg q4d sc): 135.6 g | Group Average Food Consumption Day 51-57 ([3]; 0.3 mg/kg q4d sc): 134.5 g | Group Average Food Consumption Day 58-63 ([3]; 0.3 mg/kg q4d sc): 134.2 g | Group Average Food Consumption Day 63-68 ([3]; 0.3 mg/kg q4d sc): 57.6 g | Leptin Levels Day 29 ([3]; 0.3 mg/kg q4d sc): 3.30 | Leptin Levels Pre-dose ([3]; 0.3 mg/kg q4d sc): 2.53 | Leptin Levels, Day 29, % Change from Baseline ([3]; 0.3 mg/kg q4d sc): 30.3% | Final BW ([3]; 0.3 mg/kg q4d sc): 727.3 g | Avg. Insulin Day 7 [3, 4]: 2.09 ng/mL | Avg. Insulin Day 15 [3, 4]: 1.38 ng/mL | Avg. Insulin Day 23 [3, 4]: 1.72 ng/mL | Avg. Insulin Day 48 [3, 4]: 1.91 ng/mL | Avg. Insulin Pre-dosing [3, 4]: 2.95 ng/mL | Group Average Food Consumption Day 1-8 [3, 4]: 121.2 g | Group Average Food Consumption Day 9-15 [3, 4]: 101.0 g | Group Average Food Consumption Day 16-23 [3, 4]: 109.7 g | Group Average Food Consumption Day 24-30 [3, 4]: 122.1 g | Group Average Food Consumption Day 31-36 [3, 4]: 125.8 g | Group Average Food Consumption Day 37-43 [3, 4]: 116.6 g | Group Average Food Consumption Day 44-50 [3, 4]: 118.2 g | Group Average Food Consumption Day 51-57 [3, 4]: 123.1 g | Group Average Food Consumption Day 58-63 [3, 4]: 130.7 g | Group Average Food Consumption Day 63-68 [3, 4]: 45.9 g | Leptin Levels Day 29 ([3]; 1 mg/kg q4d sc): 4.53 | Leptin Levels Pre-dose ([3]; 1 mg/kg q4d sc): 4.67 | Leptin Levels, Day 29, % Change from Baseline ([3]; 1 mg/kg q4d sc): −2.9% | Final BW ([3]; 1.0 mg/kg q4d sc): 668.6 g | lower body weight than rats on the standard chow diet ([3]; 3 mg/kg Q4D, end of the study): 6.2% | lower body weight than the vehicle control ([3]; 3 mg/kg Q4D, end of the study): 22.1% | Avg. Insulin Day 7 ([3]; 3 mg/kg q4d sc): 0.66 ng/mL | Avg. Insulin Day 15 ([3]; 3 mg/kg q4d sc): 0.54 ng/mL | Avg. Insulin Day 23 ([3]; 3 mg/kg q4d sc): 1.26 ng/mL | Avg. Insulin Day 48 ([3]; 3 mg/kg q4d sc): 1.08 ng/mL | Avg. Insulin Pre-dosing ([3]; 3 mg/kg q4d sc): 1.49 ng/mL | Group Average Food Consumption Day 1-8 ([3]; 3 mg/kg q4d sc): 97.3 g | Group Average Food Consumption Day 9-15 ([3]; 3 mg/kg q4d sc): 63.2 g | Group Average Food Consumption Day 16-23 ([3]; 3 mg/kg q4d sc): 123.4 g | Group Average Food Consumption Day 24-30 ([3]; 3 mg/kg q4d sc): 108.7 g | Group Average Food Consumption Day 31-36 ([3]; 3 mg/kg q4d sc): 102.6 g | Group Average Food Consumption Day 37-43 ([3]; 3 mg/kg q4d sc): 105.5 g | Group Average Food Consumption Day 44-50 ([3]; 3 mg/kg q4d sc): 129.9 g | Group Average Food Consumption Day 51-57 ([3]; 3 mg/kg q4d sc): 115.2 g | Group Average Food Consumption Day 58-63 ([3]; 3 mg/kg q4d sc): 128.0 g | Group Average Food Consumption Day 63-68 ([3]; 3 mg/kg q4d sc): 43.3 g | Leptin Levels Day 29 ([3]; 3 mg/kg q4d sc): 1.36 | Leptin Levels Pre-dose ([3]; 3 mg/kg q4d sc): 2.47 | Leptin Levels, Day 29, % Change from Baseline ([3]; 3 mg/kg q4d sc): −45.0% | Final BW ([3]; 3.0 mg/kg q4d sc): 604.7 g | Avg. Insulin Day 7 ([3]; 6 mg, q7d sc): 1.96 ng/mL | Avg. Insulin Day 15 ([3]; 6 mg, q7d sc): 1.00 ng/mL | Avg. Insulin Day 23 ([3]; 6 mg, q7d sc): 1.11 ng/mL | Avg. Insulin Day 48 ([3]; 6 mg, q7d sc): 1.32 ng/mL | Avg. Insulin Pre-dosing ([3]; 6 mg, q7d sc): 3.06 ng/mL | Group Average Food Consumption Day 1-8 ([3]; 6 mg, q7d sc): 105.2 g | Group Average Food Consumption Day 9-15 ([3]; 6 mg, q7d sc): 48.3 g | Group Average Food Consumption Day 16-23 ([3]; 6 mg, q7d sc): 43.9 g | Group Average Food Consumption Day 24-30 ([3]; 6 mg, q7d sc): 139.8 g | Group Average Food Consumption Day 31-36 ([3]; 6 mg, q7d sc): 117.4 g | Group Average Food Consumption Day 37-43 ([3]; 6 mg, q7d sc): 126.3 g | Group Average Food Consumption Day 44-50 ([3]; 6 mg, q7d sc): 81.2 g | Group Average Food Consumption Day 51-57 ([3]; 6 mg, q7d sc): 107.5 g | Group Average Food Consumption Day 58-63 ([3]; 6 mg, q7d sc): 107.7 g | Group Average Food Consumption Day 63-68 ([3]; 6 mg, q7d sc): 19.8 g | Leptin Levels Day 29 ([3]; 6 mg, q7d sc): 2.00 | Leptin Levels Pre-dose ([3]; 6 mg, q7d sc): 3.93 | Leptin Levels, Day 29, % Change from Baseline ([3]; 6 mg, q7d sc): −49.2% | Final BW ([3]; 6.0 mg/kg q7d sc): 596.7 g | change in leptin levels from baseline versus dose ([3]; FIG. 18): dose-dependent response | weight loss versus fumagillol exposure, compared to Compound 1 or CKD-732 ([3]; day 68, FIG. 12): greater weight loss with significantly lower fumagillol exposure

From US11304944B2, “MetAP2 inhibitors and methods of treating obesity” (SynDevRx, Inc., priority 2013, dated 2022)
